The source of these data is US8389557B2, “Triazole derivatives useful as Axl inhibitors” (Rigel Pharmaceuticals, Inc., priority 2005, dated 2013).

The target in the first assay is T1, Axl (Homo sapiens, UniProt P30530).
T1 construct: endogenous in cells; host or cells: HeLa cells
T1 sequence (P30530 26-894): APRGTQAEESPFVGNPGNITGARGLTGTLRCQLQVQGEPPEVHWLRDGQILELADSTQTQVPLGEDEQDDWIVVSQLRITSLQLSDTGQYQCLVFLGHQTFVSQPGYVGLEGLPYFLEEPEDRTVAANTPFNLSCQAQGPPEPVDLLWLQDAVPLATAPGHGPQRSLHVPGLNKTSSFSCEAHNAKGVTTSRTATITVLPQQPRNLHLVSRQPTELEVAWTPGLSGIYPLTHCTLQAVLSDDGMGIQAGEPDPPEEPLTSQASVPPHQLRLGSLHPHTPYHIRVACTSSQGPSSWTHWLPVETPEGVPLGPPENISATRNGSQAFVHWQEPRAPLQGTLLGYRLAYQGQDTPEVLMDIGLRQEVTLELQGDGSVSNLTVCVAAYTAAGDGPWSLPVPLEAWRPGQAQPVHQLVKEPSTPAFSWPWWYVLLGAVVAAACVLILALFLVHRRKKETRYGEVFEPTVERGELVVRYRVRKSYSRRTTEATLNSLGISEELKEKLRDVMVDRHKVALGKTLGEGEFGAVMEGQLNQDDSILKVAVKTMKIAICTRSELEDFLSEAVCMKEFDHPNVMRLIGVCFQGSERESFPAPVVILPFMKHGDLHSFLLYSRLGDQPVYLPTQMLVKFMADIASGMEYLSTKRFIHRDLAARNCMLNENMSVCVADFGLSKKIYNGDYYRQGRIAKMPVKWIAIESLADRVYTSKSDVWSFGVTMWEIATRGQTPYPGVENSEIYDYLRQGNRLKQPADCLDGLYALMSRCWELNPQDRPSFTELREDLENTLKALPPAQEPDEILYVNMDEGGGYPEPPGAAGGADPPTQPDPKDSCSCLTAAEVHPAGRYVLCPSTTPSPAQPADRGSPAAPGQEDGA
The assay is described as follows: Phospho-Akt in-cell Western assay (inhibition of Axl activity). The format is cell-based. The note with it: Table 2; Hela cells, Axl antibody cross-linking stimulation, phospho-Akt chemiluminescence. The method, then: The compounds of the invention were tested in the following assay for their ability to inhibit Axl activity.
Phospho-Akt in-Cell Western Assay
• Cell culture plate: 96 well assay plate (Corning 3610), white, clear bottom, tissue-culture treated. • Cells: Hela cells. • Starvation medium: For Axl stimulation: 0.5% FCS (fetal calf serum) in DMEM, plus Axl/Fc (extracellular domain of AXL fused to immunoglobulin Fc region) (R&D, 154-AL) 500 ng/mL. • For EGF (epidermal growth factor) stimulation: 0.5% FCS in DMEM (Dulbecco's modified Eagles medium). • Poly-L-Lysine 0.01% solution (the working solution): 10 μg/ml, dilute In PBS (phosphate buffered saline). • Axl antibody cross-linking: • 1st: Mouse anti-Axl (R&D, MAB154). • 2nd: Biotin-SP-conjugated AffiniPure goat anti-mouse IgG (H+L) (Jackson ImmunoResearch #115-065-003). • Fixing buffer: 4% formaldehyde in PBS. • Wash buffer: 0.1% TritonX-100 in PBS. • Quenching buffer: 3% H2O2, 0.1% Azide in wash buffer, Azide and hydrogen peroxide (H2O2) are added fresh. • Blocking buffer: 5% BSA in TBST (tris buffered saline plus 0.1% Tween 20). • Primary antibody: Rabbit anti-human Phospho-Akt antibody (Cell Signaling 9271): 1×250 diluted in blocking buffer. • Secondary antibody: HRP (horse radish peroxidase)-conjugated Goat anti-Rabbit secondary, stock solution: Jackson ImmunoResearch (Goat anti-Rabbit HRP, #111-035-144) 1:1 diluted in glycerol, store at −20° C. The working solution: 1×2000 dilution of stock in blocking buffer. • Chemiluminescent working solution (Pierce, 37030): SuperSignal ELISA (enzyme linked immunosorbant assay) Pico Chemiluminescent substrate. • Crystal Violet solution: Stock: 2.5% Crystal violet in methanol, filtered and kept at ambient temperature. The working solution: dilute the stock 1:20 with PBS immediately before use. • 10% SDS: working solution: 5% SDS (sodium dodecylsulfate), diluted in PBS Methods: Day 1:
A 96 well TC (tissue culture treated) plate was coated with 10 μg/mL poly-L-Lysine at 37° C. for 30 min, washed twice with PBS, and air-dried for 5 minutes before cells were added. Hela cells were seeded at 10,000 cells/well and the cells were starved in 100 μL starvation medium containing Axl/Fc for 24 hrs.
The cells were pre-treated with test compounds by adding 100 μL of 2× test compound to the starvation medium on the cells. The cells were incubated at 37° C. for 1 hr before stimulation.
The cells were stimulated by Axl-antibody cross-linking as follows: A 5×1st/2nd Axl antibody mixture was made (37.5 μg/mL 1st/100 μg/mL 2nd) in starvation medium and nutated at 4° C. with thorough mixing for 1-2 hours for clustering. The resulting mix was warmed to 37° C. 50 μL of 5× Axl 1st/2nd of antibody cluster was added to the cells and the cells were incubated at 37° C. for 5 min.
After 5 minutes stimulation, the plate was flicked to remove medium and the plate was tapped onto paper towels. Formaldehyde (4.0% in PBS, 100 μL) was added to fix the cells and the cells were incubated at ambient temperature for 20 min without shaking.
The cells were washed with a plate washer buffer to remove the formaldehyde solution. The plate was flicked to removed excess wash buffer and tapped onto paper towels. Quenching buffer (100 μL) was added to each well and the cells were incubated at ambient temperature for 20 minutes without shaking.
The cells were washed with a plate washer buffer to remove the quenching buffer. Blocking buffer (100 μL) was added and the cells were incubated at ambient temperature for at least an hour with gentle shaking.
The cells were washed with a plate washer buffer and diluted primary antibody (50 μL) was added to each well (blocking buffer was added to the negative control wells instead). The plates were incubated overnight at 4° C. with gentle shaking.
The wash buffer was removed, diluted secondary antibody (100 μL) was added, and the cells were incubated at ambient temperature for 1 hour with gentle shaking. […]
For `CC(C)Oc1ccc(C(=O)n2nc(N)nc2Nc2ccc(OCCN3CCCCC3)cc2)cc1` [compound 47, 3-amino-1-(4-(iso-propoxy)phenyl)carbonyl-5-[4-[2-(piperidin-1-yl)ethoxy]phenylamino]-1H-1,2,4-triazole], the IC50 (usually the concentration at which inhibition is half-maximal) is more than 20000 nM. Still for that read-out and setting: the result for `CC(C)Oc1ccc(C(=O)n2nc(N)nc2Nc2ccc(N3CCOCC3)cc2)cc1` [compound 49, 3-amino-1-(4-(iso-propoxy)phenyl)carbonyl-5-(4-(morpholin-4-yl)phenylamino]-1H-1,2,4-triazole] reads more than 20000 nM; that for `Cc1ccc(C(=O)n2nc(N)nc2Nc2ccc(OC(C)C)cc2)cc1` [compound 56, 3-amino-5-[4-(iso-propoxy)phenylamino]-1-(4-(methyl)phenyl)carbonyl-1H-1,2,4-triazole], more than 20000 nM. On to `CC(C)(C)Oc1ccc(C(=O)n2nc(N)nc2Nc2ccc(N3CCOCC3)cc2)cc1` [compound 58, 3-amino-5-(4-(morpholin-4-yl)phenylamino)-1-(4-(tert-butoxy)phenyl)carbonyl-1H-1,2,4-triazole], for which the IC50 is more than 20000 nM.

The assay is the same for the next values; noted with them: Table 5; Hela cells, Axl antibody cross-linking stimulation, phospho-Akt chemiluminescence.
The compound `CC(C)Oc1ccc(C(=O)n2nc(Nc3ccc4c(c3)NC(=O)C(F)(F)O4)nc2N)cc1` [compound 63, 5-amino-3-(2,2-difluoro-2H-benzo[b][1,4]oxazin-3(4H)-on-6-yl)amino-1-(4-(iso-propoxy)phenyl)carbonyl-1H-1,2,4-triazole] had an IC50 of more than 20000 nM.

Regarding `Cc1cccc(C(=O)n2nc(Nc3ccc4c(c3)NC(=O)C(F)(F)O4)nc2N)c1` [compound 64, 5-amino-3-(2,2-difluoro-2H-benzo[b][1,4]oxazin-3(4H)-on-6-yl)amino-1-(3-(methyl)phenyl)carbonyl-1H-1,2,4-triazole], the IC50 is more than 20000 nM.

The same assay, now with this note: Table 7; Hela cells, Axl antibody cross-linking stimulation, phospho-Akt chemiluminescence.
In turn, `COc1ccc(NC(=O)n2nc(Nc3ccc(OCCN4CCCCC4)cc3)nc2N)cc1OC` [compound 43, 5-amino-N-(3,4-(dimethoxy)phenyl)-3-[4-[2-(piperidin-1-yl)ethoxy]phenylamino]-1H-1,2,4-triazole-1-carboxamide] returned a concentration for half-maximal inhibition (IC50) of 1000 to 10000 nM. For the compound `CN(C)c1ccc(NC(=O)n2nc(Nc3ccc(OCCN4CCCCC4)cc3)nc2N)cc1` [compound 44, 5-amino-N-(4-(dimethylamino)phenyl)-3-[4-[2-(piperidin-1-yl)ethoxy]phenylamino]-1H-1,2,4-triazole-1-carboxamide], the IC50 fell in the range of 1000 to 10000 nM.

As for `Nc1nc(Nc2ccc(OCCN3CCCCC3)cc2)nn1C(=O)NC1CCCC1` [compound 45, 5-amino-N-cyclopentyl-3-[4-[2-(piperidin-1-yl)ethoxy]phenylamino]-1H-1,2,4-triazole-1-carboxamide], the half-maximal inhibitory concentration (IC50) is 1000 to 10000 nM.

`CCCCOc1ccc(NC(=O)n2nc(Nc3ccc(OCCN4CCCCC4)cc3)nc2N)cc1` [compound 46, 5-amino-N-(4-butoxyphenyl)-3-[4-[2-(piperidin-1-yl)ethoxy]phenylamino]-1H-1,2,4-triazole-1-carboxamide] gave a concentration for half-maximal inhibition (IC50) of 1000 to 10000 nM.

Staying with this assay, now noted: inhibition of Axl activity, Table 1.
`CC(C)Oc1ccc(C(=O)n2nc(Nc3ccc(N4CCOCC4)cc3)nc2N)cc1` [compound 48, 5-amino-1-(4-(iso-propoxy)phenyl)carbonyl-3-(4-(morpholin-4-yl)phenylamino]-1H-1,2,4-triazole] displayed a half-inhibitory concentration (IC50) of less than 1000 nM. The same measure, in the same setting: to `CC(C)(C)Oc1ccc(C(=O)n2nc(Nc3ccc(OCCN4CCCCC4)cc3)nc2N)cc1` [compound 50, 5-amino-3-[4-[2-(piperidin-1-yl)ethoxy]phenylamino]-1-(4-(tert-butoxy)phenyl)carbonyl-1H-1,2,4-triazole] belongs less than 1000 nM; to `CC(C)c1ccc(C(=O)n2nc(Nc3ccc(OCCN4CCCCC4)cc3)nc2N)cc1` [compound 51, 5-amino-1-(4-(iso-propyl)phenyl)carbonyl-3-[4-[2-(piperidin-1-yl)ethoxy]phenylamino]-1H-1,2,4-triazole], less than 1000 nM; to `CC(C)c1ccc(C(=O)n2nc(Nc3ccc(N4CCOCC4)cc3)nc2N)cc1` [compound 52, 5-amino-1-(4-(iso-propyl)phenyl)carbonyl-3-(4-(morpholin-4-yl)phenylamino]-1H-1,2,4-triazole], less than 1000 nM. The same measure, in the same setting: to `Cc1ccc(C(=O)n2nc(Nc3ccc(OCCN4CCCCC4)cc3)nc2N)cc1` [compound 53, 5-amino-1-(4-(methyl)phenyl)carbonyl-3-[4-[2-(piperidin-1-yl)ethoxy]phenylamino]-1H-1,2,4-triazole] belongs less than 1000 nM; to `Cc1ccc(C(=O)n2nc(Nc3ccc(N4CCOCC4)cc3)nc2N)cc1` [compound 54, 5-amino-1-(4-(methyl)phenyl)carbonyl-3-(4-(morpholin-4-yl)phenylamino)-1H-1,2,4-triazole], less than 1000 nM; to `Cc1ccc(C(=O)n2nc(Nc3ccc(OC(C)C)cc3)nc2N)cc1` [compound 55, 5-amino-3-[4-(iso-propoxy)phenylamino]-1-(4-(methyl)phenyl)carbonyl-1H-1,2,4-triazole], less than 1000 nM.

The compound `CC(C)(C)Oc1ccc(C(=O)n2nc(Nc3ccc(N4CCOCC4)cc3)nc2N)cc1` [compound 57, 5-amino-3-(4-(morpholin-4-yl)phenylamino)-1-(4-(tert-butoxy)phenyl)carbonyl-1H-1,2,4-triazole] showed a 50% inhibitory concentration (IC50) of less than 1000 nM. Same read-out and setting: to `Cc1cccc(C(=O)n2nc(Nc3ccc(OCCN4CCCCC4)cc3)nc2N)c1` [compound 59, 5-amino-1-(3-(methyl)phenyl)carbonyl-3-[4-[2-(piperidin-1-yl)ethoxy]phenylamino]-1H-1,2,4-triazole] belongs less than 1000 nM; to `CC(C)Oc1ccc(C(=O)n2nc(Nc3ccc(OCCN4CCSCC4)cc3)nc2N)cc1` [compound 60], less than 1000 nM. Same read-out and setting: to `Cc1cccc(C(=O)n2nc(Nc3ccc(OCCN4CCSCC4)cc3)nc2N)c1` [compound 61] belongs 1000 to 10000 nM; to `Nc1nc(Nc2ccc(OCCN3CCCCC3)cc2)nn1C(=O)c1ccc(C2CCCCC2)cc1` [compound 62, 5-amino-1-(4-(cyclohexyl)phenyl)carbonyl-3-[4-[2-(piperidin-1-yl)ethoxy]phenylamino]-1H-1,2,4-triazole], 1000 to 10000 nM.
